Among the data in patent US20250009742A1 (priority 2021, published 2025) are IC50, CC50 and viability values, retold here.

Some results are limits rather than exact numbers.

Data set [1] has as its system intracellular HBV DNA. In words: Real-time PCR for intracellular HBV DNA in HepAD38 cells. In kind it is cell-based. Particulars: Hepatitis B virus, HePAD38, 65 h, 65 hours treatment. How it is done: HepAD38 cells were cultured in DMEM medium (Welgene) supplemented with 200 unit/mL penicillin, 200 μg/mL streptomycin, and 10% FBS. During maintenance and passage, the cells were cultured together with 0.4 μg/mL tetracycline. Two days before the treatment with compounds for inducing HBV replication was started, the medium was replaced with a tetracycline-free complete growth medium. […]
HepAD38 cells were treated with a compound for 65 hours and then recovered, and intracellular HBV DNA was extracted therefrom according to the protocol in the DNeasy Blood & Tissue Kit (Qiagen). The primers and probes used to quantify HBV DNA were 5′-[…]-3′, 5′-[…]-3′, and 5′-/56-FAM/TGT CCT GGT/ZEN/TAT CGC TGG ATG TGT CT/3IABkFQ/-3′. The HBV DNA was amplified by real-time PCR assay using LightCycler 480 (Roche) (J. Virol., 2018, 92(16):e00339-18). All of the processes were confirmed in duplicate.
For orientation: Real-time PCR tracks product formation cycle by cycle.

A short description of data set [2]: Cell viability assay (EZ-Cytox), cytotoxicity. Particulars: human, HepAD38 cells; for viability at 65 h, 100 µM: read-out: Cytotoxicity % Livability (@100 μM). Type of data set: cell-based. How it is done:
HepAD38 cells were cultured for 2 days in Dulbecco's Modified Eagle's medium (Welgene, LM001-05) supplemented with 10% FBS without tetracycline. […] After 65 hours of treatment, viability was measured using EZ-Cytox cell viability assay kit (Daeil Lab Service) according to the manufacturer's instructions. The absorbance was measured at 450 nm using a spectrophotometer (Spark, Tecan).

What is called IC50 is the concentration that inhibits the measured activity by half. The low end stands for greater potency in that assay, the high end for weaker potency in that assay. A word on the CC50: it is the concentration giving 50% cytotoxicity. Regarding `COc1ncc(N(Cc2cc(C(F)(F)F)[nH]n2)C(=O)Nc2nccc(-n3ccnc3)c2F)cn1` [Example 3, 3-(3-fluoro-4-(1H-imidazol-1-yl)pyridin-2-yl)-1-(2-methoxypyrimidin-5-yl)-1-((5-(trifluoromethyl)-1H-pyrazol-3-yl)methyl)urea], in data set [1], the IC50 is > 1100 nM. Also, in data set [2], the CC50 at 65 h was > 100000 nM and the viability at 65 h, 100 µM stood at 74.2%.

As for `COc1ncc(N(Cc2cc(C(F)(F)F)[nH]n2)C(=O)NC23CC(Cl)(C2)C3)cn1` [Example 6, 3-(3-chlorobicyclo[1.1.1]pentan-1-yl)-1-(2-methoxypyrimidin-5-yl)-1-((5-(trifluoromethyl)-1H-pyrazol-3-yl)methyl)urea], in data set [1], the IC50 is > 1100 nM. For the same compound, in data set [2], the CC50 at 65 h is > 100000 nM and the viability at 65 h, 100 µM was 100%.

The compound `COc1ncc(N(Cc2cc(C(F)(F)F)[nH]n2)C(=O)Nc2ccc(C#N)c(Cl)c2)cn1` [Example 7, 3-(3-chloro-4-cyanophenyl)-1-(2-methoxypyrimidin-5-yl)-1-((5-(trifluoromethyl)-1H-pyrazol-3-yl)methyl)urea] yielded an IC50 in data set [1] of 19 nM. Also, in data set [2], the CC50 at 65 h is > 100000 nM and the viability at 65 h, 100 µM was 59.3%.

Take `COc1ncc(N(Cc2cc(C#N)[nH]n2)C(=O)Nc2ccc(C#N)c(Cl)c2)cn1` [Example 9]: the half-maximal inhibitory concentration (IC50) in data set [1] turned out to be 310 nM. Also, in data set [2], the CC50 at 65 h was > 100000 nM and the viability at 65 h, 100 µM turned out to be 105%.

On to `COc1ncc(N(Cc2cc(C(F)(F)F)[nH]n2)C(=O)Nc2cc(F)c(F)c(Cl)n2)cn1` [Example 13, 3-(6-chloro-4,5-difluoropyridin-2-yl)-1-(2-methoxypyrimidin-5-yl)-1-((5-(trifluoromethyl)-1H-pyrazol-3-yl)methyl)urea], for which the IC50 in data set [1] was found to be 210 nM. Moreover, in data set [2], the CC50 at 65 h is > 100000 nM and the viability at 65 h, 100 µM turned out to be 100%.

Take `CS(=O)(=O)Nc1ccc(N(Cc2n[nH]c3c2CCOC3)C(=O)Nc2ccc(F)c(Cl)c2)cc1` [Example 16, N-(4-(3-(3-chloro-4-fluorophenyl)-1-((1,4,5,7-tetrahydropyrano[3,4-c]pyrazol-3-yl)methyl)ureido)phenyl)methanesulfonamide]: in data set [1], the IC50 was > 1100 nM. This compound also yielded a CC50 at 65 h in data set [2] of 97600 nM.

On to `CS(=O)(=O)Nc1ccc(N(Cc2n[nH]c3c2CCOC3)C(=O)Nc2ccc(F)c(Cl)c2)cn1` [Example 17, N-(5-(3-(3-chloro-4-fluorophenyl)-1-((1,4,5,7-tetrahydropyrano[3,4-c]pyrazol-3-yl)methyl)ureido)pyridin-2-yl)methanesulfonamide], for which, in data set [1], the half-maximal inhibitory concentration (IC50) is > 1100 nM. In data set [2], the CC50 at 65 h was > 100000 nM.

On to `CS(=O)(=O)Nc1ccc(N(Cc2n[nH]c3c2CCCO3)C(=O)Nc2ccc(F)c(Cl)c2)cn1` [Example 18, N-(5-(3-(3-chloro-4-fluorophenyl)-1-((1,4,5,6-tetrahydropyrano[2,3-c]pyrazol-3-yl)methyl)ureido)pyridin-2-yl)methanesulfonamide], for which, in data set [1], the IC50 was > 1100 nM. Besides, the CC50 at 65 h in data set [2] was > 100000 nM.

As for `CS(=O)(=O)Nc1ccc(N(Cc2n[nH]c3c2CCCO3)C(=O)Nc2ccc(F)c(Cl)c2)cc1` [Example 19, N-(4-(3-(3-chloro-4-fluorophenyl)-1-((1,4,5,6-tetrahydropyrano[2,3-c]pyrazol-3-yl)methyl)ureido)phenyl)methanesulfonamide], the IC50 in data set [1] is > 1100 nM. Also, the CC50 at 65 h in data set [2] is > 100000 nM.

For the compound `CC(=O)c1ccc(N(Cc2n[nH]c3c2CCCO3)C(=O)Nc2ccc(F)c(Cl)c2)cn1` [Example 20, 1-(6-acetylpyridin-3-yl)-3-(3-chloro-4-fluorophenyl)-1-((1,4,5,6-tetrahydropyrano[2,3-c]pyrazol-3-yl)methyl)urea], the IC50 in data set [1] was > 1100 nM. In addition, the CC50 at 65 h in data set [2] was > 100000 nM.

Take `COc1ncc(N(Cc2cc(C(F)(F)F)[nH]n2)C(=O)Nc2nc(F)c(F)cc2F)cn1` [Example 221, 1-(2-methoxypyrimidin-5-yl)-1-((5-(trifluoromethyl)-1H-pyrazol-3-yl)methyl)-3-(3,5,6-trifluoropyridin-2-yl)urea]: in data set [1], the IC50 is > 1100 nM.
